What was measured:
[1] = target: T1, DNA repair protein RAD52 homolog (Homo sapiens, UniProt P43351); test: Inhibition of FAM-conjugated ssDNA binding to His-tagged wild type RAD52 (unknown origin) expressed in Rosetta2(DE3)/pLysS cells measured after 30 mins by fluorescence polarization assay
T1 sequence (P43351 whole entry): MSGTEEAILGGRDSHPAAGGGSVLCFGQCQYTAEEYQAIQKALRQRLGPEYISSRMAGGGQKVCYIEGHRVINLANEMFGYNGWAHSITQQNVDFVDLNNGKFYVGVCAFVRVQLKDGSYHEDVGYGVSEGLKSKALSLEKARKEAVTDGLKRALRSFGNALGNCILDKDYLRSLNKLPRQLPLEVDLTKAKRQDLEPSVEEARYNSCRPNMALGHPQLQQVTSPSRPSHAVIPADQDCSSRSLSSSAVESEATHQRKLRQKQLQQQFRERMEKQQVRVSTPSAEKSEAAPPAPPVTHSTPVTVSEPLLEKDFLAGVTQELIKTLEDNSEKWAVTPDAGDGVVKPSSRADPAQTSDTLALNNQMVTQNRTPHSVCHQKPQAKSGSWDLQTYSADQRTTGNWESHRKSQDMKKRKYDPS

[2] = target: T2, DNA repair protein RAD52 homolog (Homo sapiens) (UniProt P43351); test: Inhibition of FAM-conjugated ssDNA binding to His-tagged wild type RAD52 (unknown origin) expressed in Rosetta2(DE3)/pLysS cells measured after 30 mins by high-throughput fluorescence polarization assay relative to control; design: concentration or dose not given beside the values
T2 sequence (whole entry): T1 sequence (P43351 whole entry)

U-87 MG = test: Antimigratory activity against human U87 cells up to 10 microM incubated for 6 hrs by CellTiter-Glo luminescent cell viability assay relative to control; type: functional, U-87MG ATCC; conditions: dose microM <=10
[3] = Antimigratory activity against human U-1242 cells at 3 uM incubated for 1 hr by scratch assay; type: functional, U-1242MG
[4] = Inhibition of human placental DNA-PK/Ku using EPPLSQEAFADLWKK as substrate in presence of [32P]ATP incubated for 12 mins by scintillation counting method
[5] = target: Cyclin-dependent kinase 12 (Homo sapiens, UniProt Q9NYV4); test: Inhibition of CDK12 (unknown origin)
[6] = target: Cyclin-dependent kinase 13 (Homo sapiens, UniProt Q14004); test: Inhibition of CDK13 (unknown origin)
Wee1-like protein kinase = Wee1-like protein kinase (Homo sapiens, UniProt P30291); test: Displacement of kinase tracer178 from recombinant WEE1 (unknown origin) incubated for 1 hr by lanthascreen TR-FRET assay
Sequence of Wee1-like protein kinase (P30291 whole entry): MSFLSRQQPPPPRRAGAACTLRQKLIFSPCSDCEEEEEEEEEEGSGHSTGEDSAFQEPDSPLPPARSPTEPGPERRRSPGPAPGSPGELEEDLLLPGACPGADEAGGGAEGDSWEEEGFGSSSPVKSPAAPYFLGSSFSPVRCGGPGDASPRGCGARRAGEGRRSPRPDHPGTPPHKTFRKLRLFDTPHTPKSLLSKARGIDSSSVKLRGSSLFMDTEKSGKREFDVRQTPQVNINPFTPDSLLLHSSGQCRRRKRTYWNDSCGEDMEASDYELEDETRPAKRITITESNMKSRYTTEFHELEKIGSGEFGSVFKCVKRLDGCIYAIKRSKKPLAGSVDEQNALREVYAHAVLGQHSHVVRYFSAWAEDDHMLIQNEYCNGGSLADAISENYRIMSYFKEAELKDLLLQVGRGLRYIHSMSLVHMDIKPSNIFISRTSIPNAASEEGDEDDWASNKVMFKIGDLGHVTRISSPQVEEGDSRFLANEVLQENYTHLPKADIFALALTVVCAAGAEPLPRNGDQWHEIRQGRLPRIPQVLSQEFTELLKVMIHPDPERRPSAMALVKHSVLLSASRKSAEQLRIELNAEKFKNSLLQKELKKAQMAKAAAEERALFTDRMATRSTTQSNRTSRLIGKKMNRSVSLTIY

[7] = target: Serine-protein kinase ATM (Homo sapiens, UniProt Q13315); test: Inhibition of human HeLa nuclear extract derived ATM using glutathioneS-transferase-p53N66 as substrate preincubated for 10 mins followed by ATP addition and measured after 1 hr by ELISA
CAPAN-1 = test: Growth inhibition of BRCA2-deficient human Capan-1 cells at 10 uM incubated for 6 days with replacement of medium for every 3 days by CCK8 assay relative to control; type: functional; conditions: CAPAN-1, 144 h, time 6 day, read-out: GI
BXPC-3 = test: Growth inhibition of BRCA2-proficient human BxPC3 cells at 10 uM assessed as cell survival incubated for 6 days with replacement of medium for every 3 days by CCK8 assay relative to control; type: functional; conditions: BXPC-3, 144 h, time 6 day, read-out: Survival
[8] = target: Serine/threonine-protein kinase ATR (Homo sapiens, UniProt Q13535); test: Inhibition of ATR (unknown origin)
Sequence of Serine/threonine-protein kinase ATR (Q13535 whole entry): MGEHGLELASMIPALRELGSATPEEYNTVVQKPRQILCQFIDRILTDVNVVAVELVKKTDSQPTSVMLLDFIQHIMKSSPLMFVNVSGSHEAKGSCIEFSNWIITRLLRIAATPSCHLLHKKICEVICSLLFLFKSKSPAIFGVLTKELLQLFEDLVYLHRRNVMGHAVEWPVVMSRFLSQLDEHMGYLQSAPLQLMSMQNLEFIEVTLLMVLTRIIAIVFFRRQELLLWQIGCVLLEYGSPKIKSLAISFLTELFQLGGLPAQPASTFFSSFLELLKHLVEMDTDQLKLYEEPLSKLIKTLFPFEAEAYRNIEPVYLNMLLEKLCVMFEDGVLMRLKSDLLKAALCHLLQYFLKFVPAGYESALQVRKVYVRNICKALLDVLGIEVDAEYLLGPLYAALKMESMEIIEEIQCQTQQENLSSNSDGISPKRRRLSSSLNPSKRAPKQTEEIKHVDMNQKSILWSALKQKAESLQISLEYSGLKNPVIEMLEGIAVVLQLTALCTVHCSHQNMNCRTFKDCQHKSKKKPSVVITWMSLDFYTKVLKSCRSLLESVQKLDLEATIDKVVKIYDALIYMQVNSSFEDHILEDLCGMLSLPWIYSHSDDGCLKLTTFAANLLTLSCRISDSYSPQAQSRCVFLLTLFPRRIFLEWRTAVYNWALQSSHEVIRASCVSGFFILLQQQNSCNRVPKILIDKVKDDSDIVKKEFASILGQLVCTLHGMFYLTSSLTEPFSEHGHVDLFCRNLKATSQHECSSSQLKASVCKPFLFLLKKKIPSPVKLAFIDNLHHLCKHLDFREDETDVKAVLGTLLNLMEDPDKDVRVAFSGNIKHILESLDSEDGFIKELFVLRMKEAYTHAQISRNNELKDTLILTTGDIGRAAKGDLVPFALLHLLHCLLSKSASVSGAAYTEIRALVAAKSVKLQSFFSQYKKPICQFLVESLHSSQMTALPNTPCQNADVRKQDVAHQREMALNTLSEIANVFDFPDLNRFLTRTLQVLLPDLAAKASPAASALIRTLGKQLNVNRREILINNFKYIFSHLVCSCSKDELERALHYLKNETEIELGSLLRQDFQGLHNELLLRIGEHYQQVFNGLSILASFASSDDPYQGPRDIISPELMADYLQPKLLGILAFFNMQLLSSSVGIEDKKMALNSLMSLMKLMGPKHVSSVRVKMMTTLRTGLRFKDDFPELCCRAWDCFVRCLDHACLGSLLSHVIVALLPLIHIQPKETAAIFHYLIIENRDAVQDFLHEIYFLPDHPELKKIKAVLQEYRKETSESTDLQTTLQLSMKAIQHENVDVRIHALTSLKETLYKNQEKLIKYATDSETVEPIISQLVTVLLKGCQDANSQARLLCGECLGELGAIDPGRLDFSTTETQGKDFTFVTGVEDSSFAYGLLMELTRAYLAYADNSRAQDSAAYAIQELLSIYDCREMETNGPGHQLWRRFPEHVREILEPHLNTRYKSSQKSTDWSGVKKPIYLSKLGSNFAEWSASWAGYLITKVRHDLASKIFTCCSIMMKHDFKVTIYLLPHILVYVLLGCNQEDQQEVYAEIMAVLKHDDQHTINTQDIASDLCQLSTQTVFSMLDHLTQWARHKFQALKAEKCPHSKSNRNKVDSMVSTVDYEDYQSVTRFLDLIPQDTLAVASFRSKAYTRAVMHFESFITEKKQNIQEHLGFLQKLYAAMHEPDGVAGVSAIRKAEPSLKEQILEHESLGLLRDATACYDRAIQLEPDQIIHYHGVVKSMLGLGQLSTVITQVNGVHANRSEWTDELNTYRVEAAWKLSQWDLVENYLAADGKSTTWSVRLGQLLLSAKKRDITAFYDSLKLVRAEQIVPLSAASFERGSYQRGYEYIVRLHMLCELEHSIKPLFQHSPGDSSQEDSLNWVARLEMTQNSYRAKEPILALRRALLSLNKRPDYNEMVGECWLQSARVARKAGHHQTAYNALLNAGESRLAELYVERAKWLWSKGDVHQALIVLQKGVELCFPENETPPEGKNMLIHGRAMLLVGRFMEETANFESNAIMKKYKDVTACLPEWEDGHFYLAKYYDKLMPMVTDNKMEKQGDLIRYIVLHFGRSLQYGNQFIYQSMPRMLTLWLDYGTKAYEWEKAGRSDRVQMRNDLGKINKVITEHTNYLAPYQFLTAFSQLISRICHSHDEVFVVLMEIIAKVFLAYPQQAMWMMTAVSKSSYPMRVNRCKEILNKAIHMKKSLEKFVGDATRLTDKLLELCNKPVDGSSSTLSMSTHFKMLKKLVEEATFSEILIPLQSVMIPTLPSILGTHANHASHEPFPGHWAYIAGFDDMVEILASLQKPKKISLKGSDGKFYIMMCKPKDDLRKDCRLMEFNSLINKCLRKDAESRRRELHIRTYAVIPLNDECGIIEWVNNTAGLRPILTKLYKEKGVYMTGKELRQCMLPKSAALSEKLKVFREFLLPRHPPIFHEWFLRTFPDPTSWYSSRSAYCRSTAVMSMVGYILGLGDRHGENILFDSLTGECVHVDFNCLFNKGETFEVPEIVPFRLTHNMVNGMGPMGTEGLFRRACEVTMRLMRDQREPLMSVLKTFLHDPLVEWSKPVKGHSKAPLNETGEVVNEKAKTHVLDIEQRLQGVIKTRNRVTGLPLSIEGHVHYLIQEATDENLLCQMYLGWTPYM

[9] = Inhibition of DNA-PK (unknown origin); design: species or system Homo sapiens
[10] = target: NUAK family SNF1-like kinase 1 (Homo sapiens) (UniProt O60285); test: Inhibition of human NUAK1 expressed in baculovirus expression system at 1 uM relative to control
Sequence of NUAK family SNF1-like kinase 1 (Homo sapiens) (O60285 whole entry): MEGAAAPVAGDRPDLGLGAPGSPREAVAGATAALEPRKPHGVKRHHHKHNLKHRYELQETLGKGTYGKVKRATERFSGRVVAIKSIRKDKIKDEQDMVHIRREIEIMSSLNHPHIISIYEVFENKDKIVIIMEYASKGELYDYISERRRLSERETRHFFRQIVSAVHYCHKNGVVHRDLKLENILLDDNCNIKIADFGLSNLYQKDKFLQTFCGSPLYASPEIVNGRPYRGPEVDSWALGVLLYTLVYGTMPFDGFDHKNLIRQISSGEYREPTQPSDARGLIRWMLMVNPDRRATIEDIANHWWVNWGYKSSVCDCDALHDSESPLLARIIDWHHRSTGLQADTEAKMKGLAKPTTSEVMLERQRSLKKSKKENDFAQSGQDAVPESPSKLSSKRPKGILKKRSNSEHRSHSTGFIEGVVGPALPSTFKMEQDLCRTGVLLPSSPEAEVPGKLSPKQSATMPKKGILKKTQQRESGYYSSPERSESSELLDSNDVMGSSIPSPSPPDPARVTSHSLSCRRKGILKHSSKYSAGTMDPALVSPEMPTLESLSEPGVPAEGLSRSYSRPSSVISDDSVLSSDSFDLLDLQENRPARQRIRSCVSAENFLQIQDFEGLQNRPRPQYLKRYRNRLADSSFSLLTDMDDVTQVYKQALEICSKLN

[11] = target: Voltage-gated inwardly rectifying potassium channel KCNH2 (Homo sapiens, UniProt Q12809); test: Inhibition of human ERG
[12] = target: Macrophage colony-stimulating factor 1 receptor (Homo sapiens) (UniProt P07333); test: Inhibition of human CSF1R expressed in baculovirus expression system at 1 uM relative to control
Sequence of Macrophage colony-stimulating factor 1 receptor (Homo sapiens) (P07333 whole entry): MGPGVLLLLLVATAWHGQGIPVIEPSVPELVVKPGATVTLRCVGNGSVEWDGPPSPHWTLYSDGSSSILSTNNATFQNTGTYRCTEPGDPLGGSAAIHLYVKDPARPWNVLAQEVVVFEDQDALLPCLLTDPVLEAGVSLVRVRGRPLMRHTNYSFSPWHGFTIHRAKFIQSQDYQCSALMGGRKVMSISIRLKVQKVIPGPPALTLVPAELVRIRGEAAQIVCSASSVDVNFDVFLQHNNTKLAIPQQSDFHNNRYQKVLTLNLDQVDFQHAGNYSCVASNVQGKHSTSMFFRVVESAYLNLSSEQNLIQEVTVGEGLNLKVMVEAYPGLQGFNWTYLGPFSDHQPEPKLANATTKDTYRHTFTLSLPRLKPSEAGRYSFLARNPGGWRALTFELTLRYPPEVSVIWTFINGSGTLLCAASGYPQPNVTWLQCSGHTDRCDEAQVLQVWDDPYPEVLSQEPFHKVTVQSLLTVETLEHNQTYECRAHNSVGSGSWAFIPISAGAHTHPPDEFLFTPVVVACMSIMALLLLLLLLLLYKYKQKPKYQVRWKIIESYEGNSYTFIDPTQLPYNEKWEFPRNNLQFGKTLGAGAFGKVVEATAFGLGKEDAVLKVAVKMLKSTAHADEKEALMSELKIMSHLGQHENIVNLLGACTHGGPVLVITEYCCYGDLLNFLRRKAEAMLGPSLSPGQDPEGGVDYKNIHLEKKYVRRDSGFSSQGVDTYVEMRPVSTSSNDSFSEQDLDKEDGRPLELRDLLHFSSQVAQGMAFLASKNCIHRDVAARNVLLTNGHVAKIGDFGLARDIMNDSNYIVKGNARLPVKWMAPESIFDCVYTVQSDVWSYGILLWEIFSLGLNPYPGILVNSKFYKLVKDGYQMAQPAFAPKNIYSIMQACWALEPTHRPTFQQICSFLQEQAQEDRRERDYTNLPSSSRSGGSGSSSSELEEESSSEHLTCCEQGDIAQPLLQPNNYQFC

[13] = target: Serine/threonine-protein kinase mTOR (Homo sapiens, UniProt P42345); test: Inhibition of mTOR (unknown origin)
[14] = target: Serine/threonine-protein kinase Sgk1 (Homo sapiens) (UniProt O00141); test: Inhibition of human SGK expressed in baculovirus expression system at 1 uM relative to control
BT-549 = test: Potentiation of veliparib-induced cytotoxicity against human BT549 cells incubated for 7 days by celltiter-Glo assay relative to control; type: functional; conditions: time 7 day
HCC1937 = test: Potentiation of veliparib-induced cytotoxicity against human HCC1937 cells incubated for 7 days by celltiter-Glo assay relative to control; type: functional; conditions: time 7 day
BT-20 = test: Potentiation of veliparib-induced cytotoxicity against human BT20 cells incubated for 7 days by celltiter-Glo assay relative to control; type: functional; conditions: time 7 day
MDA-MB-436 = test: Potentiation of veliparib-induced cytotoxicity against human MDA-MB-436 cells incubated for 7 days by celltiter-Glo assay relative to control; type: functional; conditions: time 7 day
SUM149PT = test: Potentiation of veliparib-induced cytotoxicity against human SUM149PT cells incubated for 7 days by celltiter-Glo assay relative to control; type: functional; conditions: time 7 day
MDA-MB-468 = test: Potentiation of veliparib-induced cytotoxicity against human MDA-MB-468 cells incubated for 7 days by celltiter-Glo assay relative to control; type: functional; conditions: time 7 day
MDA-MB-231 = test: Potentiation of veliparib-induced cytotoxicity against human MDA-MB-231 cells incubated for 7 days by celltiter-Glo assay relative to control; type: functional; conditions: time 7 day
Hs-578T = test: Potentiation of veliparib-induced cytotoxicity against human Hs578T cells incubated for 7 days by celltiter-Glo assay relative to control; type: functional; conditions: time 7 day
HCC38 = test: Potentiation of veliparib-induced cytotoxicity against human HCC38 cells incubated for 7 days by celltiter-Glo assay relative to control; type: functional; conditions: time 7 day
[15] = target: Cyclin-dependent kinase 1 (Homo sapiens, UniProt P06493); test: Inhibition of CDK1 (unknown origin)
[16] = target: T1, DNA repair protein RAD52 homolog; test: Inhibition of 6His-tagged human RD52 assessed as reduction in RD52 binding to Cy3-dT30-Cy5 ssDNA incubated for 30 mins by FRET assay

Question: Which IC50 [1] does the source give for NC(Cc1cc(O)c(O)cc1O)C(=O)O (stereo not given) here?
Answer: Its IC50 is 1.1 µM.

Question: And the inhibition [2]?
Answer: Its inhibition is over 60%.

Question: Which results are given for C[C@@H]1CN(CC(=O)Nc2ccc3c(c2)Cc2cccc(-c4cc(=O)cc(N5CCOCC5)o4)c2S3)C[C@H](C)O1?
Answer: Activity (U-87 MG): >70%; Activity [3]: >50%

Question: With CCc1[nH]c(/C=C2\C(=O)Nc3ccc(S(=O)(=O)Nc4ccccc4)cc32)c(CC)c1CCC(=O)O as the compound, how does the IC50 [4] read?
Answer: The IC50 was 130 nM.

Question: Which IC50 [5] does the source give for CN(C)C/C=C/C(=O)Nc1ccc(C(=O)Nc2cccc(Nc3ncc(Cl)c(-c4c[nH]c5ccccc45)n3)c2)cc1 here?
Answer: The IC50 was 864 nM.

Question: What about the IC50 [6] of the same compound?
Answer: Its IC50 is 225 nM.

Question: Which IC50 [1] does the source give for O=C1NC(=S)NC(=O)C1=C/C=C/c1ccco1 here?
Answer: Its IC50 is under 5 µM.

Question: And the inhibition [2]?
Answer: Its inhibition is over 60%.

Question: Which IC50 [1] does the source give for Cn1cccc1C=CC(=O)O here?
Answer: The IC50 was under 5 µM.

Question: What about the inhibition [2] of the same compound?
Answer: The inhibition was over 60%.

Question: Which IC50 (Wee1-like protein kinase) does the source give for C=CCn1c(=O)c2cnc(Nc3ccc(N4CCN(C(=O)OC)CC4)cc3)nc2n1-c1cccc(C(C)(C)O)n1 here?
Answer: Its IC50 is 2.8 nM.

Question: Which results are given for CC(C)Oc1c(-c2ccco2)c(=O)c1=O?
Answer: IC50 [1]: < 5 µM; inhibition [2]: > 60%

Question: For Oc1ccc(N=Cc2ccc[nH]2)cc1N=Cc1ccc[nH]1, which IC50 [1] is on record?
Answer: Its IC50 is under 5 µM.

Question: And the inhibition [2]?
Answer: Its inhibition is over 60%.

Question: Which IC50 [1] does the source give for O=C(O)c1ccc(/C=N/c2nc[nH]n2)cc1 here?
Answer: The IC50 was under 5 µM.

Question: What about the inhibition [2] of the same compound?
Answer: Its inhibition is over 60%.

Question: Which IC50 [7] does the source give for O=c1cc(-c2cccc3c2Sc2ccccc2S3)oc(N2CCCCC2)c1 here?
Answer: Its IC50 is 2960 nM.

Question: For O=C1C=CC(=NOS(=O)(=O)c2cc(Cl)ccc2Cl)C=C1, which IC50 [1] is on record?
Answer: The IC50 was under 5 µM.

Question: And the inhibition [2]?
Answer: Its inhibition is over 60%.

Question: With Cn1cccc1C=C1C(=O)NC(=S)NC1=O as the compound, how does the IC50 [1] read?
Answer: The IC50 was under 5 µM.

Question: What about the inhibition [2] of the same compound?
Answer: The inhibition was over 60%.

Question: For Cc1ccc2[nH]c(CCc3cccc(NC(=O)C4CCCN(S(=O)(=O)N5CCCC5)C4)c3)nc2c1 (stereo not given), which inhibition of growth at 10 µM (CAPAN-1) is on record?
Answer: Its inhibition of growth at 10 µM is 50%.

Question: What about the viability at 10 µM (BXPC-3) of the same compound?
Answer: Its viability at 10 µM is over 90%.

Question: Which IC50 [1] does the source give for O=C(O)C1=CC(=C(c2ccc(O)c(C(=O)O)c2)c2ccc(O)c(C(=O)O)c2)C=CC1=O [AURINTRICARBOXYLIC ACID] here?
Answer: Its IC50 is under 5 µM.

Question: And the inhibition [2]?
Answer: The inhibition was over 60%.

Question: For CC(C)n1c(=O)n(C)c2cnc3cc(F)c(-c4ccc(OCCCN5CCCCC5)nc4)cc3c21 [AZD-1390], which IC50 [8] is on record?
Answer: The IC50 was at least 1000 nM.

Question: And the IC50 [9]?
Answer: The IC50 was at least 1000 nM.

Question: And the inhibition [10]?
Answer: Its inhibition is over 50%.

Question: What about the IC50 [11] of the same compound?
Answer: Its IC50 is 6.55 µM.

Question: What about the inhibition [12] of the same compound?
Answer: Its inhibition is over 50%.

Question: What about the IC50 [13] of the same compound?
Answer: The IC50 was at least 1000 nM.

Question: What about the inhibition [14] of the same compound?
Answer: Its inhibition is over 50%.

Question: With Cc1cc2ncnn2cc1Nc1ncc2c(n1)n(C1CCOCC1)c(=O)n2C [AZD-7648] as the compound, how does the IC50 [9] read?
Answer: The IC50 was 0.6 nM.

Question: Which “fold change (FC)” value (BT-549) does the source give for CCc1cnn2c(NCc3ccc[n+]([O-])c3)cc(N3CCCC[C@H]3CCO)nc12 [DINACICLIB] here?
Answer: The value was 2.5.

Question: What about the “fold change (FC)” value (HCC1937) of the same compound?
Answer: The value was 2.5.

Question: What about the “fold change (FC)” value (BT-20) of the same compound?
Answer: The value was 2.5.

Question: And the “fold change (FC)” value (MDA-MB-436)?
Answer: The value was 2.5.

Question: And the “fold change (FC)” value (SUM149PT)?
Answer: The value was 2.5.

Question: What about the “fold change (FC)” value (MDA-MB-468) of the same compound?
Answer: Its value is 2.5.

Question: What about the “fold change (FC)” value (MDA-MB-231) of the same compound?
Answer: The value was 2.5.

Question: And the “fold change (FC)” value (Hs-578T)?
Answer: Its value is 2.5.

Question: And the “fold change (FC)” value (HCC38)?
Answer: The value was 2.5.

Question: For Cc1cc2c(C(C)C)c(O)c(O)c(C=O)c2c(O)c1-c1c(C)cc2c(C(C)C)c(O)c(O)c(C=O)c2c1O [GOSSYPOL], which IC50 [1] is on record?
Answer: The IC50 was under 5 µM.

Question: What about the inhibition [2] of the same compound?
Answer: The inhibition was over 60%.

Question: For Nc1nn2cc(F)cnc2c1C(=O)Nc1cncc(F)c1N1CCC(C(=O)N2CCN(C3COC3)CC2)CC1 [M4344], which Ki [8] is on record?
Answer: The Ki was at most 0.15 nM.

Question: Which IC50 [9] does the source give for COc1ccc([C@@H](O)c2cc(-c3ncnc4cc(N5CCOCC5)ccc34)c(F)cc2Cl)nn1 [NEDISERTIB] here?
Answer: Its IC50 is at most 3 nM.

Question: For CCN(CC)CCOc1ccc(Nc2ncc3cc(-c4c(Cl)cccc4Cl)c(=O)n(C)c3n2)cc1 [PD-0166285], which IC50 [15] is on record?
Answer: The IC50 was under 100 nM.

Question: Which IC50 [16] does the source give for O=C(O[C@@H]1O[C@@H]2COC(=O)c3cc(O)c(O)c(O)c3-c3c(cc(O)c(O)c3O)C(=O)O[C@H]2[C@H](O)[C@H]1O)c1cc(O)c(O)c(O)c1 [STRICTININ] here?
Answer: The IC50 was 1500 nM.
